Test results published in ChEMBL document CHEMBL1201862, “PubChem BioAssay data set” (2004).
Where “and” joins values, the source holds several entries; their conditions need not be identical. Identical values can stand only once.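 Growth conditions: 96-well plates. Treatment: test compound, 48 hours, 5 concentrations. Analysis: linear interpolation between bracketing concentrations; unreached endpoints set to highest concentration. GI50 marks 50% less growth.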 Calls of active or inactive are those of the source. Cut-off read from the data, not from the text of the source: active = GI50 up to about 1.1 µM and inactive = higher.

Experiments:
Test in all cases: NCI tumour cell line growth inhibition, 48 h
Malme-3M = tested on: Malme-3M
HCT-116 = tested on: HCT-116
SW-620 = tested on: SW-620
SF-295 = tested on: SF-295
TK-10 = tested on: TK-10
OVCAR-8 = tested on: OVCAR-8
UO-31 = tested on: UO-31
NCI-H460 = tested on: NCI-H460
SR = tested on: SR
HCC 2998 = tested on: HCC 2998
UACC-62 = tested on: UACC-62
SNB-78 = tested on: SNB-78
EKVX = tested on: EKVX
SF-268 = tested on: SF-268
HCT-15 = tested on: HCT-15
DMS-114 = tested on: DMS-114
DLD-1 = tested on: DLD-1
SK-OV-3 = tested on: SK-OV-3
KM-20L2 = tested on: KM-20L2
IGROV-1 = tested on: IGROV-1
RPMI-8226 = tested on: RPMI-8226
KM12 = tested on: KM12
A549 = tested on: A549
SF-539 = tested on: SF-539
DMS-273 = tested on: DMS-273
HL-60 = tested on: HL-60
SK-MEL-5 = tested on: SK-MEL-5
786-0 = tested on: 786-0
HOP-18 = tested on: HOP-18
SK-MEL-2 = tested on: SK-MEL-2
XF498 = tested on: XF498
RXF 393 = tested on: RXF 393
OVCAR-3 = tested on: OVCAR-3
NCI-H226 = tested on: NCI-H226
SK-MEL-28 = tested on: SK-MEL-28
LXFL 529 = tested on: LXFL 529
LOX IMVI = tested on: LOX IMVI
HT-29 = tested on: HT-29
U-251 = tested on: U-251
UACC-257 = tested on: UACC-257
NCI-H23 = tested on: NCI-H23
ACHN = tested on: ACHN
M14 = tested on: M14
A498 = tested on: A498
SNB-75 = tested on: SNB-75
COLO 205 = tested on: COLO 205
CCRF-CEM = tested on: CCRF-CEM
HOP-92 = tested on: HOP-92
HOP-62 = tested on: HOP-62
SN12C = tested on: SN12C
OVCAR-4 = tested on: OVCAR-4
MOLT-4 = tested on: MOLT-4
SNB-19 = tested on: SNB-19
K562 = tested on: K562
NCI-H522 = tested on: NCI-H522
M19-MEL = tested on: M19-MEL
OVCAR-5 = tested on: OVCAR-5
CAKI-1 = tested on: CAKI-1
MDA-N = tested on: MDA-N
BT-549 = tested on: BT-549
NCI/ADR-RES = tested on: NCI/ADR-RES
Hs-578T = tested on: Hs-578T
MDA-MB-435 = tested on: MDA-MB-435
PC-3 = tested on: PC-3

`O=C1/C(=C/c2ccccc2)CN(C(=O)Oc2ccc(Cl)cc2)C/C1=C\c1ccccc1` was tested, and the GI50 (Malme-3M) was 11.3 µM (inactive), the GI50 (HCT-116) was 0.239 µM (active) and the GI50 (SW-620) was 1.22 µM (inactive). For the same compound, the GI50 (SF-295) was 2.23 µM (inactive), the GI50 (TK-10) was 5.21 µM (inactive) and the GI50 (OVCAR-8) was 1.65 µM (inactive). The GI50 (UO-31) was 4.75 µM (inactive), the GI50 (NCI-H460) was 2.44 µM (inactive) and the GI50 (SR) was 1.32 µM (inactive). The GI50 (HCC 2998) was 1.51 µM (inactive), the GI50 (UACC-62) was 2.31 µM (inactive) and the GI50 (SNB-78) was 2.96 µM (inactive). The GI50 (EKVX) was 10 µM (inactive), the GI50 (SF-268) was 2.99 µM (inactive) and the GI50 (HCT-15) was 1.17 µM. The GI50 (DMS-114) was 1.79 µM (inactive), the GI50 (DLD-1) was 1.11 µM (active) and the GI50 (SK-OV-3) was 7.13 µM (inactive). The GI50 (KM-20L2) was 2.71 µM (inactive), the GI50 (IGROV-1) was 3.05 µM (inactive) and the GI50 (RPMI-8226) was 0.0957 µM (active). The GI50 (KM12) was 1.49 µM (inactive), the GI50 (A549) was 9.33 µM (inactive) and the GI50 (SF-539) was 2.36 µM (inactive). For the same compound, the GI50 (DMS-273) was 1.83 µM (inactive), the GI50 (HL-60) was 0.871 µM (active) and the GI50 (SK-MEL-5) was 1.68 µM (inactive). The GI50 (786-0) was 1.96 µM (inactive), the GI50 (HOP-18) was 13.1 µM (inactive) and the GI50 (SK-MEL-2) was 11.5 µM (inactive). For the same compound, the GI50 (XF498) was 2.29 µM (inactive), the GI50 (RXF 393) was 2.17 µM (inactive) and the GI50 (OVCAR-3) was 3.42 µM (inactive). The GI50 (NCI-H226) was 5.74 µM (inactive), the GI50 (SK-MEL-28) was 2.1 µM (inactive) and the GI50 (LXFL 529) was 1.72 µM (inactive). The GI50 (LOX IMVI) was 0.635 µM (active), the GI50 (HT-29) was 1.14 µM (inactive) and the GI50 (U-251) was 1.53 µM (inactive). For the same compound, the GI50 (UACC-257) was 1.7 µM (inactive), the GI50 (NCI-H23) was 3.22 µM (inactive) and the GI50 (ACHN) was 3.03 µM (inactive). For the same compound, the GI50 (M14) was 1.53 µM (inactive), the GI50 (A498) was 2.11 µM (inactive) and the GI50 (SNB-75) was 4.24 µM (inactive). For the same compound, the GI50 (COLO 205) was 3.1 µM (inactive), the GI50 (CCRF-CEM) was 1.55 µM (inactive) and the GI50 (HOP-92) was 21.8 µM (inactive). The GI50 (HOP-62) was 10 µM (inactive), the GI50 (SN12C) was 1.84 µM (inactive) and the GI50 (OVCAR-4) was 0.887 µM (active). The GI50 (MOLT-4) was 2.65 µM (inactive), the GI50 (SNB-19) was 3.31 µM (inactive) and the GI50 (K562) was 1.76 µM (inactive). For the same compound, the GI50 (NCI-H522) was 2.25 µM (inactive), the GI50 (M19-MEL) was 1.12 µM (active) and the GI50 (OVCAR-5) was 10.9 µM (inactive).
For `O=C1CSC(Cc2nc3ccccc3[nH]2)=N1`, the GI50 (Malme-3M) was 10.6 µM (inactive), the GI50 (HCT-116) was 12.9 µM (inactive) and the GI50 (SW-620) was 31.9 µM (inactive). The GI50 (SF-295) was 24.7 µM (inactive), the GI50 (TK-10) was 28.2 µM (inactive) and the GI50 (OVCAR-8) was 23.5 µM (inactive). For the same compound, the GI50 (UO-31) was 20.6 µM (inactive), the GI50 (SR) was 5.83 µM (inactive) and the GI50 (HCC 2998) was 18.3 µM (inactive). The GI50 (UACC-62) was 15.1 µM (inactive), the GI50 (SNB-78) was 40.5 µM (inactive) and the GI50 (EKVX) was 33.7 µM (inactive). For the same compound, the GI50 (SF-268) was 16.7 µM (inactive), the GI50 (HCT-15) was 17.5 µM and the GI50 (DMS-114) was 13.1 µM (inactive). The GI50 (DLD-1) was 18.2 µM (inactive), the GI50 (SK-OV-3) was 36.1 µM (inactive) and the GI50 (KM-20L2) was 14.1 µM (inactive). The GI50 (IGROV-1) was 26.6 µM (inactive), the GI50 (RPMI-8226) was 13.7 µM (inactive) and the GI50 (KM12) was 17.6 µM (inactive). The GI50 (A549) was 21.6 µM (inactive), the GI50 (SF-539) was 20.7 µM (inactive) and the GI50 (DMS-273) was 15.4 µM (inactive). The GI50 (HL-60) was 28.6 µM (inactive), the GI50 (SK-MEL-5) was 7.45 µM (inactive) and the GI50 (786-0) was 17.1 µM (inactive). The GI50 (HOP-18) was 23.4 µM (inactive), the GI50 (SK-MEL-2) was 16.3 µM (inactive) and the GI50 (XF498) was 20.4 µM (inactive). The GI50 (RXF 393) was 18.7 µM (inactive), the GI50 (OVCAR-3) was 14.3 µM (inactive) and the GI50 (NCI-H226) was 13.9 µM (inactive). For the same compound, the GI50 (SK-MEL-28) was 16 µM (inactive), the GI50 (LXFL 529) was 16.3 µM (inactive) and the GI50 (LOX IMVI) was 13.9 µM (inactive). The GI50 (HT-29) was 24.7 µM (inactive), the GI50 (U-251) was 17.3 µM (inactive) and the GI50 (UACC-257) was 19.7 µM (inactive). For the same compound, the GI50 (NCI-H23) was 18.6 µM (inactive), the GI50 (CAKI-1) was 15.8 µM (inactive) and the GI50 (ACHN) was 5.41 µM (inactive). The GI50 (M14) was 15.4 µM (inactive), the GI50 (A498) was 5.98 µM (inactive) and the GI50 (SNB-75) was 17.1 µM (inactive). For the same compound, the GI50 (COLO 205) was 23.5 µM (inactive), the GI50 (CCRF-CEM) was 6.4 µM (inactive) and the GI50 (HOP-92) was 29.9 µM (inactive). For the same compound, the GI50 (HOP-62) was 22.3 µM (inactive), the GI50 (SN12C) was 18.1 µM (inactive) and the GI50 (OVCAR-4) was 18.5 µM (inactive). The GI50 (MOLT-4) was 9.98 µM (inactive), the GI50 (SNB-19) was 21.1 µM (inactive) and the GI50 (K562) was 15 µM (inactive). The GI50 (NCI-H522) was 17.7 µM (inactive), the GI50 (M19-MEL) was 7.03 µM (inactive) and the GI50 (OVCAR-5) was 28.8 µM (inactive).
For `COC1=C(N)C(=O)c2nc(-c3nc(C(=O)O)c(C)c(-c4ccc(OC)c(OC)c4O)c3N)ccc2C1=O` [STREPTONIGRIN], the GI50 (HCT-116) was 0.00619 µM (active), the GI50 (MDA-N) was 0.00792 µM (active) and the GI50 (SW-620) was 6.03 nM (active) and 10 nM (active). For the same compound, the GI50 (BT-549) was 0.00526 µM (active), the GI50 (NCI/ADR-RES) was 0.00893 µM (active) and the GI50 (HCC 2998) was 5.65 nM (active) and < 10.9 nM (active). For the same compound, the GI50 (SNB-78) was 19.4 nM (active) and < 10 nM (active), the GI50 (DMS-114) was < 0.01 µM (active) and the GI50 (DLD-1) was 0.0131 µM (active). The GI50 (SK-OV-3) was 0.00826 µM (active), the GI50 (KM-20L2) was 10 nM (active) and 19 nM (active) and the GI50 (A549) was 0.00505 µM (active). The GI50 (Hs-578T) was < 0.01 µM (active), the GI50 (DMS-273) was < 0.01 µM (active) and the GI50 (SK-MEL-5) was < 10 nM (active) and 5.81 nM (active). For the same compound, the GI50 (HOP-18) was < 0.01 µM (active), the GI50 (XF498) was < 0.01 µM (active) and the GI50 (NCI-H226) was < 10 nM (active) and 5.73 nM (active). The GI50 (LXFL 529) was 0.01 µM (active), the GI50 (MDA-MB-435) was < 10 nM (active) and 8.59 nM (active) and the GI50 (LOX IMVI) was 0.00581 µM (active). For the same compound, the GI50 (PC-3) was 0.0071 µM (active), the GI50 (UACC-257) was 7.87 nM (active) and < 10.7 nM (active) and the GI50 (A498) was 8.11 nM (active) and 12.6 nM (active). The GI50 (CCRF-CEM) was < 10 nM (active) and 6.01 nM (active), the GI50 (SN12C) was 0.00785 µM (active) and the GI50 (M19-MEL) was 0.01 µM (active).
